Source: US7700638B2, “1,5,7-trisubstituted benzimidazole derivatives and their use for modulating the GABAA receptor complex” (N. V. Organon, priority 2003, dated 2010)
Where a name gives a salt, the structure may show the parent alone.

Target: GABA recognition site and the benzodiazepine modulatory unit (GABAA receptor complex), cerebral cortex membranes
Test: In vitro inhibition of 3H-flunitrazepam (3H-FNM) binding
Set-up: species or system rat
Settings: inhibition of specific binding of 3H-FNM (1 nM), cerebral cortex membranes from male Wistar rats, 40 min at 2° C.
Experimental: In vitro Inhibition of ^3H-flunitrazepam (^3H-FNM) Binding
The GABA recognition site and the benzodiazepine modulatory unit can selectively be labelled with ^3H-flunitrazepam.
Preparations are performed at 0-4° C. unless otherwise indicated. Cerebral cortex from male Wistar rats (150-200 g) is homogenised for 5-10 sec in 20 ml […] (30 mM, pH 7.4) using an Ultra-Turrax homogeniser. The suspension is centrifuged at 27,000×g for 15 min and the pellet is washed three times with buffer (centrifuged at 27,000×g for 10 min). The washed pellet is homogenized in 20 ml of buffer and incubated on a water bath (37° C.) for 30 min to remove endogenous GABA and then centrifuged for 10 min at 27,000×g. The pellet is then homogenized in buffer and centrifuged for 10 min at 27,000×g. The final pellet is resuspended in 30 ml buffer and the preparation is frozen and stored at −20° C.
The membrane preparation is thawed and centrifuged at 2° C. for 10 min at 27,000×g. The pellet is washed twice with 20 ml 50 mM Tris-citrate, pH 7.1 using an Ultra-Turrax homogeniser and centrifuged for 10 min at 27,000×g. The final pellet is resuspended in 50 mM Tris-citrate, pH 7.1 (500 ml buffer per g of original tissue), and then used for binding assays. Aliquots of 0.5 ml tissue are added to 25 μl of test solution and 25 μl of ^3H-FNM (1 nM, final concentration), mixed and incubated for 40 min at 2° C. Non-specific binding is determined using Clonazepam (1 μM, final concentration). After incubation the samples are added 5 ml of ice-cold buffer and poured directly onto Whatman GF/C glass fibre filters under suction and immediately washed with 5 ml ice-cold buffer. The amount of radioactivity on the filters is determined by conventional liquid scintillation counting. Specific binding is total binding minus non-specific binding.
25-75% inhibition of specific binding must be obtained, before calculation of an IC50.
The test value will be given as IC50 (the concentration (μM) of the test substance which inhibits the specific binding of ^3H-FNM by 50%).
Co is specific binding in control assays, and
Cx is the specific binding in the test assay.
(The calculations assume normal mass-action kinetics).

Molecule	IC50 [nM]
CN(CCC#N)CCCCc1cc(C(F)(F)F)cc2ncn(-c3ccccc3)c12 [Example 88, 7-(4-((N-(2-Cyanoethyl)-N-methyl)amino)-1-butyl)-1-phenyl-5-trifluoromethylbenzimidazole trifluoroacetic acid salt]	100
CCN(CC)C(=O)C=Cc1cc(C(F)(F)F)cc2ncn(-c3ccccc3)c12 [Example 65, N,N-Diethyl-3-(3-phenyl-6-trifluoromethyl-3H-benzimidazol-4-yl)acrylamide]	20
COC(=O)C=Cc1cc(C(F)(F)F)cc2ncn(-c3ccccc3)c12 [Example 57, 3-(3-Phenyl-6-trifluoromethyl-3H-benzimidazol-4-yl)acrylic acid methyl ester]	46
OCc1cc(-c2cccc(OC(F)(F)F)c2)c2c(c1)ncn2-c1ccccc1 [Example 51, 5-(Hydroxymethyl)-1-phenyl-7-(3-trifluoromethoxyphenyl)benzimidazole]	12
FC(F)(F)c1cc(C#CCN2CC=CCC2)c2c(c1)ncn2-c1ccccc1 [Example 92, 1-Phenyl-7-(3-(1-(1,2,3,6-tetrahydropyridinyl))prop-1-ynyl)-5-trifluoromethylbenzimidazole]	48
Nc1cccc(-c2cc(C=NO)cc3ncn(-c4ccccc4)c23)c1 [Example 6, 7-(3-Aminophenyl)-5-formyl-1-phenylbenzimidazole oxime]	4.2
CCN(CC)Cc1ccc(-c2cc(C#N)cc3ncn(-c4ccccc4)c23)cc1 [Example 41, 5-Cyano-7-(4-diethylaminomethylphenyl)-1-phenylbenzimidazole trifluoroacetic acid salt]	27
CCOC(=O)c1cc(-c2cccc(CN3CCN(C)CC3)c2)c2c(c1)ncn2-c1ccccc1 [Example 33, 5-Ethoxycarbonyl-7-(3-((1-methylpiperazin-4-yl)methyl)phenyl)-1-phenylbenzimidazole]	19
7-[1-(3-Dimethylamino)pyrrolidinyl]-1-phenyl-5-trifluoromethylbenzimidazole trifluoroacetic acid salt [Example 94]	90
N#Cc1cccc(C=Nc2cc(C(F)(F)F)cc3ncn(-c4ccccc4)c23)c1 [Example 10, 7-(N-(3-cyanobenzylidene)amino)-1-phenyl-5-trifluoromethylbenzimidazole]	18
CCN(CC)C(=O)CCc1cc(C(F)(F)F)cc2ncn(-c3ccccc3)c12 [Example 81, N,N-Diethyl-3-(3-Phenyl-6-trifluoromethyl-3H-benzimidazol-4-yl)propionamide]	38
OCc1cccc(-c2cc(C(F)(F)F)cc3ncn(-c4ccccc4)c23)c1 [Example 12, 7-(3-(Hydroxymethyl)phenyl)-1-phenyl-5-trifluoromethylbenzimidazole]	30
FC(F)(F)c1cc(C#CCN2CCOCC2)c2c(c1)ncn2-c1ccccc1 [Example 80, 7-(3-(4-Morpholino)prop-1-ynyl)-1-phenyl-5-trifluoromethylbenzimidazole trifluoroacetic acid salt]	180
COc1ccc(-c2cc(C#N)cc3ncn(-c4ccccc4)c23)cc1 [Example 23, 5-Cyano-7-(4-methoxyphenyl)-1-phenylbenzimidazole]	38
